Reference: patent US20090197955A1, “METHODS OF IMPROVING DHA DEPOSITION AND RELATED FUNCTION AND/OR DEVELOPMENT” (Monsanto Company, priority 2008, published 2009)

Test: Fatty acid composition of pig tissues (ham, loin, belly, skin) after feeding SDA ethyl ester diets, 35 day study
Assay type: in vivo, pigs
Method: A 35 day study was conducted to determine whether pigs fed a diet containing SDA could enhance tissues with improved fatty acid profiles including increased levels of SDA, EPA, and DHA.
Four test diets (Treatment 2, 3, 4, and 5) with SDA ethyl ester substituted for corn oil to provide 0.2, 0.4, 0.6 and 0.8% (w/w SDA active ingredient, as-is basis) were fed ad libitum to one pen of four pigs throughout the 35-day test period Table 4). All diets were fed in meal form. Treatment 6 was fed the same diet as Treatment 5, but for a duration of only 21 days.
All pigs were individually weighed at initiation of the acclimation and test period, and immediately prior to slaughter. Feed consumption per pen was recorded. Upon completion of the feeding period, pigs were slaughtered for tissue collection and carcass evaluation. Pigs were slaughtered using standard industry practices (electrical stunning, exsanguinations, scalding, dehairing and evisceration). Live weights prior to slaughter and hot carcass weights were recorded. The left side of each carcass was fabricated and samples were obtained from the loin (longissimus muscle), ham (semimembranosus muscle) and belly (a section from the center of the belly) for sensory evaluation, fatty acid, and proximate analysis. Prior to removing the sample for sensory and fatty and proximate analysis from the belly the firmness of the belly was evaluated using a flop test. At 24 hr postmortem fat thickness (10th rib), loin eye area (10th rib), visual color, firmness and marbling, Minolta color (L*a*b*), pH, and drip loss were measured.
In order to evaluate the fatty acid composition of pig tissues (loin, ham, skin, and belly), samples were stored at −80° C. until evaluation. After thawing, ˜22 g of fresh pig tissue was chopped into small pieces and thoroughly mixed before 10 g was sub sampled and lyophilized. Lyophilized samples were ground in 30 ml Sarstedt tubes with two ball bearings using a Mega Grinder. Ground samples (loin and ham: 50 mg; skin: 100 mg; belly: 150 mg; diet: 500 mg) were directly methylated with sulfuric acid in methanol (loin and ham: 1 mL; skin: 3 mL; belly: 10 mL; diet: 1.5 mL) sealed in the presence of butylated hydroxytoluene (50 mg BHT in 100 ml reagent) in reflux conditions of 90° C. Resultant fatty acid methyl esters (FAME's) were separated by capillary gas chromatography (GC) and detected by flame ionization detector (FID). The column used was a Supelco Omegawax 250 capillary column with dimensions of 30 m×0.25 mm×0.25 μm film thickness. The run time was 32 minutes. Peaks were identified based on their relative retention time compared to a FAME reference mixture. Quantification was achieved by using an internal standard (c15:0 triacylglyceride (TAG) for pig tissue samples and c17:0 TAG for diet samples). Results are reported as FA g/100 g fat with theoretical response correction.
For Table 6 below, each value represents g/100 g total fatty acids a mean of 4 samples (1 sample from each of 4 pigs) per treatment.

CC/C=C\C/C=C\C/C=C\C/C=C\CCCCC(=O)O [SDA, stearidonic acid]
22:3 n-6, ham (0.8% SDA feed, 35 days): 0.24 g FA per 100 g fat | 22:5 n-3 (DPA), ham (0.8% SDA feed, 35 days): 0.83 g FA per 100 g fat | 22:6 n-3 (DHA), ham (0.8% SDA feed, 35 days): 0.13 g FA per 100 g fat | 24:1 n-9, ham (0.8% SDA feed, 35 days): 0.07 g FA per 100 g fat | Total PUFA, ham (0.8% SDA feed, 35 days): 18.89 g FA per 100 g fat | Total monoenes, ham (0.8% SDA feed, 35 days): 43.54 g FA per 100 g fat | Total n-3, ham (0.8% SDA feed, 35 days): 2.64 g FA per 100 g fat | Total n-6, ham (0.8% SDA feed, 35 days): 16.25 g FA per 100 g fat | Total saturates, ham (0.8% SDA feed, 35 days): 33.18 g FA per 100 g fat | n-6/n-3, ham (0.8% SDA feed, 35 days): 6.16 | 12:0, ham (SDA 0.2%, 35 Day): 2.04 mg FA/100 g of fresh tissue | 14:0, ham (SDA 0.2%, 35 Day): 34.0 mg FA/100 g of fresh tissue | 16:0, ham (SDA 0.2%, 35 Day): 673.5 mg FA/100 g of fresh tissue | 16:1 n-7, ham (SDA 0.2%, 35 Day): 116.6 mg FA/100 g of fresh tissue | 18:0, ham (SDA 0.2%, 35 Day): 313.7 mg FA/100 g of fresh tissue | 18:1 n-7, ham (SDA 0.2%, 35 Day): 146.2 mg FA/100 g of fresh tissue | 18:1 n-9, ham (SDA 0.2%, 35 Day): 1303.4 mg FA/100 g of fresh tissue | 18:2 n-6, ham (SDA 0.2%, 35 Day): 264.7 mg FA/100 g of fresh tissue | 18:3 n-3, ham (SDA 0.2%, 35 Day): 5.60 mg FA/100 g of fresh tissue | 18:4 n-3, ham (SDA 0.2%, 35 Day): 0.76ab mg FA/100 g of fresh tissue | 20:1 n-9, ham (SDA 0.2%, 35 Day): 22.0 mg FA/100 g of fresh tissue | 20:2 n-6, ham (SDA 0.2%, 35 Day): 11.4a mg FA/100 g of fresh tissue | 20:3 n-3, ham (SDA 0.2%, 35 Day): 0.91 mg FA/100 g of fresh tissue | 20:4 n-3, ham (SDA 0.2%, 35 Day): 2.23ab mg FA/100 g of fresh tissue | 20:4 n-6, ham (SDA 0.2%, 35 Day): 57.4 mg FA/100 g of fresh tissue | 20:5 n-3, ham (SDA 0.2%, 35 Day): 3.98a mg FA/100 g of fresh tissue | 22:1 n-11, ham (SDA 0.2%, 35 Day): 1.06ab mg FA/100 g of fresh tissue | 22:5 n-3, ham (SDA 0.2%, 35 Day): 11.1b mg FA/100 g of fresh tissue | 22:6 n-3, ham (SDA 0.2%, 35 Day): 2.21 mg FA/100 g of fresh tissue | Lipid content, ham (SDA 0.2%, 35 Day): 3.15% | Total PUFA, ham (SDA 0.2%, 35 Day): 377.9 mg FA/100 g of fresh tissue | Total monoenes, ham (SDA 0.2%, 35 Day): 1600 mg FA/100 g of fresh tissue | Total n-3, ham (SDA 0.2%, 35 Day): 26.8a mg FA/100 g of fresh tissue | Total n-6, ham (SDA 0.2%, 35 Day): 351.2 mg FA/100 g of fresh tissue | Total saturates, ham (SDA 0.2%, 35 Day): 1029.0 mg FA/100 g of fresh tissue | n-3/n-6, ham (SDA 0.2%, 35 Day): 0.080b | 12:0, ham (SDA 0.4%, 35 Day): 2.22 mg FA/100 g of fresh tissue | 14:0, ham (SDA 0.4%, 35 Day): 38.2 mg FA/100 g of fresh tissue | 16:0, ham (SDA 0.4%, 35 Day): 748.4 mg FA/100 g of fresh tissue | 16:1 n-7, ham (SDA 0.4%, 35 Day): 121.6 mg FA/100 g of fresh tissue | 18:0, ham (SDA 0.4%, 35 Day): 370.6 mg FA/100 g of fresh tissue | 18:1 n-7, ham (SDA 0.4%, 35 Day): 151.0 mg FA/100 g of fresh tissue | 18:1 n-9, ham (SDA 0.4%, 35 Day): 1404.9 mg FA/100 g of fresh tissue | 18:2 n-6, ham (SDA 0.4%, 35 Day): 316.6 mg FA/100 g of fresh tissue | 18:3 n-3, ham (SDA 0.4%, 35 Day): 9.17 mg FA/100 g of fresh tissue | 18:4 n-3, ham (SDA 0.4%, 35 Day): 1.45b mg FA/100 g of fresh tissue | 20:1 n-9, ham (SDA 0.4%, 35 Day): 23.6 mg FA/100 g of fresh tissue | 20:2 n-6, ham (SDA 0.4%, 35 Day): 12.7a mg FA/100 g of fresh tissue | 20:3 n-3, ham (SDA 0.4%, 35 Day): 1.49 mg FA/100 g of fresh tissue | 20:4 n-3, ham (SDA 0.4%, 35 Day): 5.04bc mg FA/100 g of fresh tissue | 20:4 n-6, ham (SDA 0.4%, 35 Day): 64.3 mg FA/100 g of fresh tissue | 20:5 n-3, ham (SDA 0.4%, 35 Day): 7.91b mg FA/100 g of fresh tissue | 22:1 n-11, ham (SDA 0.4%, 35 Day): 1.25b mg FA/100 g of fresh tissue | 22:5 n-3, ham (SDA 0.4%, 35 Day): 15.2c mg FA/100 g of fresh tissue | 22:6 n-3, ham (SDA 0.4%, 35 Day): 2.59 mg FA/100 g of fresh tissue | Lipid content, ham (SDA 0.4%, 35 Day): 3.5% | Total PUFA, ham (SDA 0.4%, 35 Day): 459.2 mg FA/100 g of fresh tissue | Total monoenes, ham (SDA 0.4%, 35 Day): 1715 mg FA/100 g of fresh tissue | Total n-3, ham (SDA 0.4%, 35 Day): 42.9b mg FA/100 g of fresh tissue | Total n-6, ham (SDA 0.4%, 35 Day): 416.4 mg FA/100 g of fresh tissue | Total saturates, ham (SDA 0.4%, 35 Day): 1166.5 mg FA/100 g of fresh tissue | n-3/n-6, ham (SDA 0.4%, 35 Day): 0.101bc | 12:0, ham (SDA 0.6%, 35 Day): 1.37 mg FA/100 g of fresh tissue | 14:0, ham (SDA 0.6%, 35 Day): 23.9 mg FA/100 g of fresh tissue | 16:0, ham (SDA 0.6%, 35 Day): 482.6 mg FA/100 g of fresh tissue | 16:1 n-7, ham (SDA 0.6%, 35 Day): 69.5 mg FA/100 g of fresh tissue | 18:0, ham (SDA 0.6%, 35 Day): 252.5 mg FA/100 g of fresh tissue | 18:1 n-7, ham (SDA 0.6%, 35 Day): 92.6 mg FA/100 g of fresh tissue | 18:1 n-9, ham (SDA 0.6%, 35 Day): 854.9 mg FA/100 g of fresh tissue | 18:2 n-6, ham (SDA 0.6%, 35 Day): 215.7 mg FA/100 g of fresh tissue | 18:3 n-3, ham (SDA 0.6%, 35 Day): 5.03 mg FA/100 g of fresh tissue
